The values that follow come from US11649245B2, “Cyclopropylamine compound as LSD1 inhibitor and use thereof” (HELIOEAST PHARMACEUTICAL CO., LTD., priority 2018, dated 2023).

Each structure is given as a SMILES string. Structures can show the parent of a compound that is named as a salt.

One data set has as its target human LSD1 (Homo sapiens, UniProt O60341). The data set can be described thus: In vitro enzyme activity screening against LSD1 (HRP/Amplex Red fluorescence coupling enzyme method). Type of data set: biochemical. Particulars: human LSD1, histone H3K4me peptide substrate 20 μM. The protocol:
The purpose of this test was to detect the in vitro inhibitory activity of the compounds against LSD1. The enzyme used in this test was human LSD1, the standard substrate was histone H3K4me peptide (20 μM), the fluorescence coupling enzyme method was used to determine the activity of the compound by combining horseradish peroxidase (HRP) and fluorescent reagent Amplex Red to detect the H2O2 generation as a result of the reaction of LSD1. Compounds were tested in 10-dose IC50 mode with a 3-fold serial dilution starting at 10 μM. The enzyme and […] to start the reaction. Fluorescence detector: Envision, excitation wavelength: Ex/Em=530/590 […]

The test system of a further data set is NCI-H1417 cells. In words: Antiproliferation activity on NCI-H1417 cells (CellTiter-Glo, 10 days). Type of data set: cell-based, human. Particulars: Homo sapiens, NCI-H1417, 240 h, incubated for 10 days. Here is the method: Experimental purpose: to detect the antiproliferation activity of the compounds on NCI-H1417 cells.
Experimental materials: RPMI 1640 culture medium, fetal bovine serum, Promega CellTiter-Glo reagent. NCI-H1417 cell line purchased from ATCC. Envision multi-label reader (PerkinElmer).
Experimental method: the compounds were dissolved to 10 mM, then the compounds were diluted 5 times with DMSO in a compound plate, the compounds were diluted 3-fold with Bravo from a starting concentration of 2 mM to the 10th concentration, 250 nL of the solutions were transferred to the upper and lower duplicate wells on a blank 384 cell plate by Echo transfer plate, cell suspension of per well/1000 cells/50 μL was added to the transferred 250 nL DMSO/compound, the compounds were diluted 200-fold, i.e., the initial action concentration was 10 μM. The cell plate was placed in a carbon dioxide incubator and incubated for 10 days. 25 μL of Promega CellTiter-Glo reagent was added to each well on the cell plate and was shaken at room temperature for 10 minutes to stabilize the luminescence signal. Readings were performed by PerkinElmer Envision multi-label analyzer.
Data analysis: the equation (Max-Ratio)/(Max-Min)*100% was used to convert the original data into the inhibition rate, the value of IC50 can be obtained by curve fitting of four-parameters (the 205 mode in XLFITS, iDBS).

The nature of data set [1]: In vivo pharmacokinetics in CD-1 mice. Particulars: male, CD-1, mouse, plasma, male CD-1 mice; for half-life / clearance / Vd: iv, 1 mg/kg; for half-life: IV 1 mg/kg, read-out: Half-life T1/2 (IV) (converted); for clearance / Vd / Cmax: study doses 1 mg/kg intravenous, 2 mg/kg oral; for clearance: read-out: Clearance CL; for Vd: read-out: Volumes of distribution Vdss; for Cmax: route not given, read-out: Max concentration Cmax; for AUC(0-t) / bioavailability: po, 2 mg/kg; for AUC(0-t): PO 2 mg/kg, read-out: The area under the plasma concentration-time curve AUC0-last PO; for bioavailability: oral 2 mg/kg vs intravenous 1 mg/kg, read-out: Bioavailability F. Here is the method: CD-1 mice (male, 7-9 weeks old, Shanghai Slac)
The rodent pharmacokinetic characteristics after intravenous injection and oral administration of the compounds were tested by standard protocols, in the experiment, the candidate compounds were formulated into clear solutions and administrated to mice via a single intravenous injection and oral administration. The vehicle for intravenous injection and oral administration was a mixed solution of 10% of dimethyl sulfoxide and 90% of 10% hydroxypropyl β cyclodextrin. This project used four male CD-1 mice, two mice were administered intravenously, with a dose of 1 mg/kg, and plasma samples were collected at 0 hour (before administration) and 0.0833, 0.25, 0.5, 1, 2, 4, 8, 24 hours after administration. The other two mice were orally administered by gavage, with a dose of 2 mg/kg, plasma samples were collected at 0 hour (before administration) and 0.25, 0.5, 1, 2, 4, 8, 24 hours after administration, whole blood samples were collected within 24 hours, which were centrifuged at 3000 g for 15 minutes, and the supernatants were separated to obtain plasma samples, 4 times volume of acetonitrile solutions containing internal standard were added to precipitate the protein, the mixtures were centrifuged to obtain the supernatants, the supernatants were added with water of equal volume and centrifuged again to take the supernatant for injection, and the blood drug concentration was quantitatively analyzed by the LC-MS/MS analysis method, and pharmacokinetic parameters were calculated, such as max concentration (Cmax), clearance (CL), half-life (T1/2), volumes of distribution (Vdss), the area under the plasma concentration-time curve (AUC0-last), bioavailability (F) etc.

For the next data set, the system named is HL60 cells. In words: Antiproliferation activity on HL60 cells (CellTiter-Glo, 6 days). Type of data set: cell-based. Particulars: Homo sapiens, HL-60, 144 h, incubated for 6 days. The source says: Experimental purpose: to detect the antiproliferation activity of the compound to be tested on HL60 cells.
Experimental materials: RPMI-1640 culture medium, fetal bovine serum, penicillin/streptomycin antibiotics purchased from Wisent. CellTiter-Glo (chemiluminescent cell viability assay reagent) reagents purchased from Promega. HL60 cell line purchased from Nanjing Cobioer Co., Ltd. Nivo multi-label reader (PerkinElmer).
Experimental method: HL60 cells were planted in a white 384-well plate, 40 μL of cell suspension per well, 600 HL60 cells were contained therein. The cell plate was placed in a carbon dioxide incubator for overnight culture. The compounds to be tested were diluted 5-fold with a pipet until the 10th concentration, i.e., diluted from 2 mM to 1.024 nM, double duplicate well experiment was set. 78 μL of the culture medium was added to an intermediate plate, and then 2 μL per well of the serially diluted compounds were transferred to the corresponding positions on the intermediate plate, after mixing, 10 μL per well was transferred to the cell plate. The cell plate was incubated in a carbon dioxide incubator for 6 days. Another cell plate was prepared and the signal value on the day of dosing was read as the maximum value (Max value in the equation below) to participate in the data analysis. 20 μL of chemiluminescent cell viability assay reagent was added to each well of this cell plate, which was incubated at room temperature for 10 minutes to stabilize the luminescence signal. The multi-label reader was used for reading.
(§1) Data analysis: the equation (Sample-Min)/(Max-Min)*100% was used to convert the original data into the inhibition rate, the IC50 value can be obtained by curve fitting of four-parameters (“log(inhibitor) vs. response—Variable slope” mode in GraphPad Prism)).

Another data set has as its system MV-4-11 cells. In words: Antiproliferation activity on MV-4-11 cells (CellTiter-Glo, 6 days). The class given is cell-based. Particulars: Homo sapiens, MV4-11, 144 h, incubated for 6 days.
Excerpt: Experimental purpose: to detect the antiproliferation activity of the compound to be tested on MV-4-11 cells.
Experimental materials: IMDM culture medium, fetal bovine serum, penicillin/streptomycin antibiotics purchased from Wisent. CellTiter-Glo (chemiluminescent cell viability assay reagent) reagents purchased from Promega. MV-4-11 cell line was purchased from Nanjing Cobioer Co., Ltd. Nivo Multi-Marker Analyzer (PerkinElmer).
Experimental method: MV-4-11 cells were planted in a white 96-well plate, 80 μL of cell suspension per well, which contained 6000 MV-4-11 cells. The cell plate was placed in a carbon dioxide incubator for overnight culture.
The compounds to be tested were diluted 5-fold with a pipet until the 8th concentration, i.e., diluted from 2 mM to 25.6 nM, double duplicate well experiment was set. 78 μL of the culture medium was added to an intermediate plate, and then 2 μL per well of the serially diluted compounds were transferred to the corresponding positions on the intermediate plate, after mixing, 20 μL per well was transferred to the cell plate. The cell plate was incubated in a carbon dioxide incubator for 6 days. Another cell plate was prepared and the signal value on the day of dosing was read as the maximum value (Max value in the equation below) to participate in the data analysis. 25 μL of the chemiluminescent cell viability assay reagent was added to each well of this cell plate, which was incubated at room temperature for 10 minutes to stabilize the luminescence signal. The multi-label analyzer was used for reading.
as §1

For the compound `FC(F)(F)c1ccc(CN2CCC3(CC2)CC(N[C@@H]2C[C@H]2c2ccccc2)CO3)cc1` (some centres unmarked) [Hydrochloride of the compound 10], inhibition against human LSD1 was half-maximal at 78.4 nM (IC50).

For the compound `O=C(O)C1(CN2CCC3(CC2)CC(N[C@@H]2C[C@H]2c2ccccc2)CO3)CC1` (some centres unmarked) [Hydrochloride of the compound 31], the IC50 against human LSD1 worked out at 2120 nM.

Regarding `Fc1ccc(CN2CCC3(CC2)CC(N[C@@H]2C[C@H]2c2ccccc2)CO3)cc1` (some centres unmarked) [Hydrochloride of the compound 9], the 50% inhibitory concentration (IC50) at human LSD1 was found to be 37.8 nM.

Consider `O=C(O)C12CCC(CN3CCC4(CC3)CC(N[C@@H]3C[C@H]3c3ccccc3)CO4)(CC1)CC2` (some centres unmarked) [Hydrochloride of the compound 28], for which the IC50 against human LSD1 was determined as 1460 nM.

`O=C(O)c1ccc(CN2CCC3(CC2)OCC3N[C@@H]2C[C@H]2c2ccccc2)cc1` (some centres unmarked) [Hydrochloride of the compound 5] came in with an IC50 against human LSD1 of 3850 nM. This IC50 is about 2.6-fold higher than that of the compound before.

Compound `NC(=O)c1ccc(CN2CCC3(CC2)CC(N[C@@H]2C[C@H]2c2ccccc2)CO3)cc1` (some centres unmarked) [Hydrochloride of the compound 23] showed an IC50 on human LSD1 of 64.6 nM. The compound also returned an IC50 in the data set on NCI-H1417 cells of 1.68 nM. In addition, in data set [1], the half-life is 4.32 h, the clearance turned out to be 68.7 mL/min/kg, the Vd amounted to 18.6 L/kg and the Cmax was determined as 144 nM. In data set [1], the AUC(0-t) worked out at 0.36 µM·h and the bioavailability came out at 37.2%.

Take `O=C(O)c1ccccc1CN1CCC2(CC1)CC(N[C@@H]1C[C@H]1c1ccccc1)CO2` (some centres unmarked) [Hydrochloride of the compound 7]: at human LSD1, the IC50 amounted to 45.1 nM.

Take `COc1ccc(CN2CCC3(CC2)CC(N[C@@H]2C[C@H]2c2ccccc2)CO3)cc1` (some centres unmarked) [Hydrochloride of the compound 8]: at human LSD1, the IC50 was found to be 39.7 nM.

On to `O=C(O)c1ccc(NC(=O)N2CCC3(CC2)CC(N[C@@H]2C[C@H]2c2ccccc2)CO3)cc1` (some centres unmarked) [Hydrochloride of the compound 1], for which, at human LSD1, it took 1690 nM to reach half-maximal inhibition (IC50).

In turn, `O=C(O)c1ccc(CN2CC3(CC(N[C@@H]4C[C@H]4c4ccccc4)CO3)C2)cc1` (some centres unmarked) [Hydrochloride of the compound 2] registered an IC50 on human LSD1 of 1580 nM. This IC50 and that of the compound before are within 1.5-fold of each other.

Consider `O=C(O)Cc1ccc(N2CCC3(CC2)CC(N[C@@H]2C[C@H]2c2ccccc2)CO3)cc1` (some centres unmarked) [Hydrochloride of the compound 12], for which, on human LSD1, half-maximal inhibition (IC50) required 1380 nM.

On to `O=C(O)c1ccc(N2CCC3(CC2)CC(N[C@@H]2C[C@H]2c2ccccc2)CO3)cc1` (some centres unmarked) [Hydrochloride of the compound 11], for which the IC50 on human LSD1 is 2880 nM.

At human LSD1, `c1ccc([C@@H]2C[C@H]2NC2COC3(CCN(CCc4nn[nH]n4)CC3)C2)cc1` (some centres unmarked) [Hydrochloride of the compound 33] yielded a 50% inhibitory concentration (IC50) of 48.2 nM.

On to `c1ccc([C@@H]2C[C@H]2NC2COC3(CCN(Cc4ccc(-c5nn[nH]n5)cc4)CC3)C2)cc1` (some centres unmarked) [Hydrochloride of the compound 24], for which the IC50 is 41.5 nM at human LSD1, 39.1 nM in the data set on HL60 cells and 38.3 nM in the data set with MV-4-11 cells.

As to `O=C(O)c1ccc(OC(=O)N2CCC3(CC2)CC(N[C@@H]2C[C@H]2c2ccccc2)CO3)cc1` (some centres unmarked) [Hydrochloride of the compound 25], the IC50 against human LSD1 is 1720 nM.

At human LSD1, `O=C(O)C1CC(CN2CCC3(CC2)CC(N[C@@H]2C[C@H]2c2ccccc2)CO3)C1` (some centres unmarked) [Hydrochloride of the compound 29] registered an IC50 of 1670 nM.

`O=C(O)c1ccc(CN2CCC3(CC2)CC(N[C@@H]2C[C@H]2c2ccccc2)CCO3)cc1` (some centres unmarked) [Hydrochloride of the compound 26]: at human LSD1, the IC50 was found to be 271 nM.

Turning to `O=C(O)c1cnc(CN2CCC3(CC2)CC(N[C@@H]2C[C@H]2c2ccccc2)CO3)cn1` (some centres unmarked) [Hydrochloride of the compound 18], the IC50 on human LSD1 was determined as 92.9 nM; with HL60 cells it was 20.4 nM; in the data set with MV-4-11 cells, 16 nM.

At human LSD1, `O=C(O)c1ccc(CN2CCC3(CC2)CC(N[C@@H]2C[C@H]2c2ccccc2)CO3)nc1` (some centres unmarked) [Hydrochloride of the compound 14] displayed a 50% inhibitory concentration (IC50) of 118 nM. Besides, in data set [1], the half-life is 0.874 h, the clearance is 16.9 mL/min/kg, the Vd was 0.551 L/kg and the Cmax was 629 nM. In data set [1], the AUC(0-t) came to 1.38 µM·h and the bioavailability is 28.7%.

In the case of `Clc1ccc(CN2CCC3(CC2)CC(N[C@@H]2C[C@H]2c2ccccc2)CO3)cc1` (some centres unmarked) [Hydrochloride of the compound 13], the IC50 at human LSD1 came to 46.6 nM.

Compound `O=C(O)c1ccc(CN2CC3(CC(N[C@@H]4C[C@H]4c4ccccc4)CCO3)C2)cc1` (some centres unmarked) [Hydrochloride of the compound 4] returned an IC50 against human LSD1 of 940 nM. Compared with the last compound, the IC50 is about 20-fold higher.

At human LSD1, `O=C(O)c1ccc(C(=O)N2CCC3(CC2)CC(N[C@@H]2C[C@H]2c2ccccc2)CO3)cc1` (some centres unmarked) [Hydrochloride of the compound 22] displayed an IC50 of 908 nM.

`O=C(O)[C@H]1CC[C@H](CN2CCC3(CC2)CC(N[C@@H]2C[C@H]2c2ccccc2)CO3)CC1` (some centres unmarked) [Hydrochloride of the compound 27] gave an IC50 on human LSD1 of 1780 nM.

The compound `O=C(O)c1cccc(CN2CCC3(CC2)CC(N[C@@H]2C[C@H]2c2ccccc2)CO3)c1` (some centres unmarked) [Hydrochloride of the compound 3] had an IC50 against human LSD1 of 96.7 nM.
